According to patent US8871751B2, “Compositions and methods relating to nuclear hormone and steroid hormone receptors including inhibitors of estrogen receptor alpha-mediated gene expression and inhibition of breast cancer” (The Board of Trustees of the University of Illinois, priority 2008, dated 2014):
Where “and” joins values, the source holds several entries; their conditions need not be identical. Equal entries are not always repeated. Entries after “also recorded” stand apart in the source; their conditions may differ. Where two headings read alike, the source gives them in different places. Blank lines part the entries; values can stand above or below the molecule they belong to.

Experiments:
[1] = biological target: T1, human ERα binding to flcERE (Homo sapiens, UniProt P03372); assay: FAMA: inhibition of ERα binding to flcERE; conditions: for IC50: FAMA; for inhibition of binding of ERα to the flcERE: 5 μM TPBM
T1 construct: Full-length FLAG-tagged human ERα was expressed and purified as described previously (27); FLAG; made in house
T1 sequence (P03372 1-595): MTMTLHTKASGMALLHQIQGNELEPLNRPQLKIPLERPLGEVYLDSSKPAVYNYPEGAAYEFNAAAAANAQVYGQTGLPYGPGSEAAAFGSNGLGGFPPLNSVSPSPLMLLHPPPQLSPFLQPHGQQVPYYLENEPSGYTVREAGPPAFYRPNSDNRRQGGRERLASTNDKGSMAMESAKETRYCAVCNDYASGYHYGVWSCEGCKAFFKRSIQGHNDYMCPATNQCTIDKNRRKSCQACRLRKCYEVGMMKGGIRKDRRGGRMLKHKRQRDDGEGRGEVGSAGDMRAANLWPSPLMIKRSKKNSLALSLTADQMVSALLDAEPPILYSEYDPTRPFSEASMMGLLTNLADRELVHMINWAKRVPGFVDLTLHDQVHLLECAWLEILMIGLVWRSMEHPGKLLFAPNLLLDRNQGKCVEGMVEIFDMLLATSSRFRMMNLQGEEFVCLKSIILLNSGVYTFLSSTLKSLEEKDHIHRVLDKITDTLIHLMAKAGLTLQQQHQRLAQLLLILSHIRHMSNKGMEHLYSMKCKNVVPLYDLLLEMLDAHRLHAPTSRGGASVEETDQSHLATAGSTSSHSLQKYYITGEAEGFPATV
Description: Prior to screening, the 10 mM library stocks were diluted to produce replica libraries in 384-well plates containing each small molecule at 0.25 mM (in DMSO). In our initial studies we were concerned that forming the flcERE-ERα complex first and then adding the candidate small molecule inhibitors would miss small molecules that bind at the interface. We therefore screened using the “sequential” method in which the candidate small molecules were first incubated with ERα and followed by addition of the flcERE. The assay for binding of ERα to the flcERE is a modification of our earlier assay (27). Assays were carried out at room temperature in black wall 384-well microplates (Greiner/Bio-One) in a total volume of 10 μl in buffer containing 20 mM Tris pH 7.5, 10% glycerol, 0.2 mM EDTA, 2 mM DTT, 100 mM KCl, 0.5 ng/μl poly dl:dC, […] bovine serum albumin and 100 nM 17β-estradiol (E2). For high throughput screening, a master mix without ERα and probe was prepared at 4° C. The master mix was divided into 2 parts. ERα was added to one part to 5 nM in the final assays. 7 μl of the ERα-containing mix was then dispensed into each well of a 384-well plate on ice. 100 nl of the compounds being tested was then added using a pin-transporter (V & P Scientific, Inc, CA) to a final concentration of 2.5 μM. The samples were mixed using the pin-transporter and sedimented by centrifugation for 2 min. at 4° C. and incubated on ice for 10 min. The flcERE probe was added to the other aliquot of the mix to 1 nM. 3 μl of the mix containing the flcERE probe was added to each well containing ERα and the test compound. The samples were mixed using the pin-transporter, the plates were briefly centrifuged and incubated at room temperature for 10 min. and fluorescence anisotropy (FA) was measured using a BMG PheraStar (BMG Labtech) microplate reader (module: 485 520) with excitation at 485λ and emission at 520λ. To identify small molecules that were highly fluorescent, or quench fluorescence, fluorescence intensity was also measured.
Dose response curves for selected compounds were carried out as described for the HTS screen except that each well contained the indicated concentration of test compound. PR assays were carried out in the same buffer used for ERα assays and contained 1 nM flcPRE and 11 nM PR-B and 100 nM progesterone. The buffer used for AR was similar but also contained 5 μM ZnCl, 5 mM NaF, 0.6 μM CHAPS and 100 nM dihydrotestosterone. AR assays contained 1 nM flcARE and 50 nM full-length wild-type AR.

[2] = test system: BG-1 ovarian cancer cells; assay: BG-1 cell growth assay (MTS); assay type: cell-based; conditions: for IC50: 10 pM E2, 5 days, MTS, read-out: IC50 for inhibition of E2-dependent growth of BG-1 cells
Description: ERα positive BG-1 ovarian cancer cells (44) were provided by Prof. K. Korach. ERα negative MDA-MB-231 human breast cancer cell lines were provided by Prof. A. Nardulli. The cells are maintained in phenol red-free MEM medium with 5% calf serum and antibiotics. 4 days before hormone induction, cells are switched to phenol red-free MEM medium containing 5% 2XCD-treated calf serum for BG-1 cells. For BG-1 cell growth assays, 250 cells in 100 μl of phenol-red-free medium were added to wells of a 96-well plate. After 24 h, the indicated concentrations of the test compounds and 10 pM E2 or ethanol vehicle were added to each well. Compounds in DMSO were diluted in medium so that the DMSO concentration was not greater than 0.5%. Cell viability assays were carried out 5-6 days later using Promega CellTiter 96®Aqueous One Solution Cell Proliferation Assay (Promega, Wis.).

[3] = test system: ERα negative MDA-MB-231 cells; assay: MDA-MB-231 cell growth / toxicity assay (MTS); assay type: cell-based, human; conditions: for effect on growth of MDA-MB-231 cells (toxicity): up to 30 μM, Example 1 assays (1 day / 5 days); for effect on growth of ER negative MDA-MB-231 cells: all concentrations
Description: ERα negative MDA-MB-231 human breast cancer cells were used to test for generalized toxicity of the test compounds. To parallel the reporter gene assays in stably transfected T47D breast cancer cells, 5,000 MDA-MB-231 cells per well were plated in a 96 well plate. The cells were maintained in the medium described above for the T47D cells. One day after plating, the same concentration of test compound used in the reporter gene assay (up to 30 μM) was added. After 24 h the MTS assay was carried out as described above. A more stringent toxicity assay parallels the assay for inhibition of estrogen-dependent growth of BG-1 cells. 250 MDA-MB-231 cells were plated per well and maintained and assayed as described for the BG-1 cells. Several compounds without detectable toxicity in the 24-h assay inhibited MDA-MB-231 cell growth in the 5-6 day assay.
Assays for Cell Growth and Viability. Cells were maintained in the media listed above containing CD-treated serum for at least 4 days prior to the experiment. To minimize cell aggregation, MCF-7 cells were harvested in 10 mM Hepes, pH 7.4, 1 mM EDTA. Other cell lines were harvested in trypsin-EDTA. 1,000 cells were plated into each well of a 96 well plate. For slow growing ZR-75 cells, 2,000 cells were plated/well. The cells were maintained in medium containing CD-treated serum for 24 hours. At 24 hours the medium was changed and E2 and DMSO vehicle or TPSF in DMSO was added. The medium was replaced after 2 days (except for BT474 cells whose medium was not changed). After 4 days viable cells were determined using a cell viability test, Promega CellTiter 96 Aqueous One Solution Cell Proliferation Assay (MTS) (Promega, Wis.).

60 cancer cell lines = conditions: independent testing at NCI Developmental Therapeutics Program, cited from earlier work
[4] = binding to HRE, 5 concentrations 0.5-10 μM, sequential method, read-out: IC50 ERα

IC50 [1, 4]: 4 µM
IC50 [2]: ~5 µM
SMILES: CN1CCC(C#N)c2ccccc21 (stereo not drawn) [Compound 1529]
concentration inhibiting growth of BG-1 cells in the absence of E2 ([2]; no E2, 5 days): > 5 µM
reduction of growth of MDA-MB-231 cells ([3]; 30 μM, 5 days): 50-60%
effect on growth of MDA-MB-231 cells ([3]; 1-20 μM, 5 days): unaffected

inhibition of binding of ERα to the flcERE ([1]; absence of zinc): 76±7%
inhibition of binding of ERα to the flcERE ([1]; presence of 50 μM zinc): 68±6%
IC50 [1, 4]: 3 µM
IC50 ([1]; read-out: IC50 for inhibition of ERα binding to the flcERE): ~3 µM and 3.5 µM
IC50 ([2]; Homo sapiens, BG-1, 120 h): 5 µM
SMILES: Cn1c(=O)c2nc(CSCc3ccccc3)[nH]c2n(C)c1=O [Compound 95910, 8-Benzylsulfanylmethyl-1,3-dimethyl-3,7-dihydro-purine-2,6-dione]
potency for inhibiting E2-ERα-dependent cell growth relative to nonspecific toxicity [2]: > 10 fold
effect on E2-independent growth of BG-1 cells ([2]; no E2, 5 days): had no effect
effect on growth of MDA-MB-231 cells (toxicity) [3]: No toxicity
effect on growth of MDA-MB-231 cells (toxicity) ([3]; listed as TPBM): had no effect; also recorded: no inhibition
effect on breast and ovarian cell growth (60 cancer cell lines; up to 100 μM): did not inhibit

IC50 [1, 4]: 2.5 µM
SMILES: CN(C)CCCn1c2c3ccccc3ccc2c2oc(=O)c3ccccc3c21 [Compound 638432]

SMILES: Cn1c(=S)c2[nH]c(SCCCC(=O)c3ccc(F)cc3)nc2n(C)c1=O [TPSF, Butyrophenone, p-fluoro-4-(1,2,3,6,-tetrahydro-1,3-dimethyl-2-oxo-6-thionopurin-8-ylthio)]
IC50 ([3]; Homo sapiens, MDA-MB-231, 96 h, 4 days, MTS, read-out: IC50 for inhibition of MDA-MB-231 (ER Neg. cells) cell growth): > 30 µM
inhibition of growth of MDA-MB-231 cells ([3]; all concentrations tested, including 30 μM, 4 days): 0%
effect on growth of ER negative MDA-MB-231 cells ([3]; including 30 μM, 4 days): did not inhibit growth; also recorded: lacks toxicity
effect on growth of ER negative MDA-MB-231 cells ([3]; including 30 μM, 4 days, listed as 97998/TPSF): did not inhibit growth; also recorded: does not inhibit growth
effect on growth of a panel of 60 cancer cell lines (60 cancer cell lines; 10 μM): does not inhibit growth
